# Test results taken from patent US20180153995A1, “USE OF ANTIMICROBIAL POLYMERS FOR RE-SENSITIZATION OF MICROORGANISMS UPON EMERGENCE OF RESISTANCE TO ANTI-MICROBIAL AGENTS” (Technion Research & Development Foundation Limited, priority 2008, published 2018).
# Like-named read-outs stand apart in the source and are kept apart here.
# How the values were obtained:
# E. coli 14384 = experiment: Antibiotic MIC by microdilution with or without sub-MIC polymer; format: cell-based, Escherichia coli
# Outline: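 Optical density at 620 nm, calibrated against standards, measured growth inhibition after 24 hours at 37° C. Inocula were 10^5 bacteria per ml, and antibiotic was serially diluted 2-fold with or without […].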
# E. coli 16327 = experiment: microbe, parasite or virus in culture
# S. aureus 15819 = experiment: Antibiotic MIC by microdilution with or without sub-MIC polymer; format: cell-based, Staphylococcus aureus; settings: S. aureus 15819
# S. aureus 17314 = experiment: as above; format: cell-based, Staphylococcus aureus
# MRSA 15903 = experiment: microbe, parasite or virus in culture; format: cell-based, Staphylococcus aureus; settings: MRSA 15903
# Outline: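 Values are FIC indexes, summing each agent's MIC in combination divided by its MIC alone, for MRSA 15903. Interpretation: <0.5 clear re-sensitization, 0.5 to 4 marginal or none, >4 antagonistic.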
smiles,measurement,setting,value
"CC1(C)S[C@@H]2[C@H](NC(=O)Cc3ccccc3)C(=O)N2[C@H]1C(=O)O [Penicillin G, penicillin G]",Antibiotic MIC,E. coli 14384,512 µg/mL
same,Antibiotic MIC,"E. coli 14384; E. coli 14384, +½ MIC C12K(NC8K)5NH2",>512 µg/mL
same,"Antibiotic MIC, None","E. coli 14384; E. coli 14384, antibiotic alone (Table 15)",>512 µg/mL
same,Antibiotic MIC,"E. coli 14384; E. coli 14384, no polymer (None), Table 9",512 µg/mL
same,Antibiotic MIC,"E. coli 14384; E. coli 14384, no polymer (None), Table 14",>512 µg/mL
same,"Antibiotic MIC in presence of C12K(NC8K)7NH2 (SEQ ID NO: 4), +¼ MIC","E. coli 14384; E. coli 14384, polymer at ¼ of its MIC",>512 µg/mL
same,"Antibiotic MIC in presence of C12K(NC8K)7NH2 (SEQ ID NO: 4), +½ MIC","E. coli 14384; E. coli 14384, polymer at ½ of its MIC",>512 µg/mL
same,"Antibiotic MIC in presence of C12K(NC8K)7NH2 (SEQ ID NO: 4), +⅓ MIC","E. coli 14384; E. coli 14384, polymer at ⅓ of its MIC",>512 µg/mL
same,Antibiotic MIC,E. coli 16327,>512 µg/mL
same,Antibiotic MIC,"E. coli 16327; E. coli 16327, +¼ MIC (1.6 μM) C12K(KNC12K)2NH2",>512 µg/mL
same,Antibiotic MIC,"E. coli 16327; E. coli 16327, +½ MIC (3.12 μM) C12K(KNC12K)2NH2",>512 µg/mL
same,Antibiotic MIC,"E. coli 16327; E. coli 16327, +⅓ MIC (2.1 μM) C12K(KNC12K)2NH2",>512 µg/mL
same,Antibiotic MIC,"E. coli 16327; E. coli 16327, no polymer (None), Table 9",>512 µg/mL
same,Antibiotic MIC,"E. coli 16327; E. coli 16327, no polymer (None), Table 10",>512 µg/mL
same,Antibiotic MIC,"E. coli 16327; E. coli 16327, no polymer (None), Table 12",>512 µg/mL
same,"MIC, Alone","E. coli 16327; E. coli U16327, antibiotic alone (Table 22)",>512 µg/mL
same,"MIC, ¼ + MIC OAK","E. coli 16327; E. coli U16327, with C12K(KNC10K)3NH2 (SEQ ID NO: 10) at ¼ of its MIC",>512 µg/mL
same,"MIC, ½ + MIC OAK","E. coli 16327; E. coli U16327, with C12K(KNC10K)3NH2 (SEQ ID NO: 10) at ½ of its MIC",512 µg/mL
same,"MIC, ⅓ + MIC OAK","E. coli 16327; E. coli U16327, with C12K(KNC10K)3NH2 (SEQ ID NO: 10) at ⅓ of its MIC",>512 µg/mL
same,"Antibiotic MIC, None","E. coli 16327; E. coli U-16327, antibiotic alone (Table 15)",>512 µg/mL
same,"Antibiotic MIC in presence of C12K(NC8K)7NH2 (SEQ ID NO: 4), +¼ MIC","E. coli 16327; E. coli U-16327, polymer at ¼ of its MIC",>512 µg/mL
same,"Antibiotic MIC in presence of C12K(NC8K)7NH2 (SEQ ID NO: 4), +½ MIC","E. coli 16327; E. coli U-16327, polymer at ½ of its MIC",512 µg/mL
same,"Antibiotic MIC in presence of C12K(NC8K)7NH2 (SEQ ID NO: 4), +⅓ MIC","E. coli 16327; E. coli U-16327, polymer at ⅓ of its MIC",>512 µg/mL
same,Antibiotic MIC,S. aureus 15819; +¼ MIC (1.6 μM) C12(5-ene)KKNC12KNH2,8 to 12 µg/mL
same,Antibiotic MIC,S. aureus 15819; +¼ MIC (1.6 μM) C12K(KNC12K)3NH2,4 µg/mL
same,Antibiotic MIC,S. aureus 15819; +¼ MIC (1.6 μM) C12KKNC12KNH2,8 µg/mL
same,Antibiotic MIC,S. aureus 15819; +½ MIC (3.12 μM) C12(5-ene)KKNC12KNH2,4 µg/mL
same,Antibiotic MIC,S. aureus 15819; +½ MIC (3.12 μM) C12K(KNC12K)3NH2,0.5 µg/mL
same,Antibiotic MIC,S. aureus 15819; +½ MIC (3.12 μM) C12KKNC12KNH2,2 µg/mL
same,Antibiotic MIC,S. aureus 15819; +⅓ MIC (2.1 μM) C12(5-ene)KKNC12KNH2,8 µg/mL
same,Antibiotic MIC,S. aureus 15819; +⅓ MIC (2.1 μM) C12K(KNC12K)3NH2,2 µg/mL
same,Antibiotic MIC,S. aureus 15819; +⅓ MIC (2.1 μM) C12KKNC12KNH2,4 µg/mL
same,Antibiotic MIC,"S. aureus 15819; no polymer (None), Table 8",16 µg/mL
same,Antibiotic MIC,"S. aureus 15819; no polymer (None), Table 11",16 µg/mL
same,Antibiotic MIC,"S. aureus 15819; no polymer (None), Table 13",16 µg/mL
same,Antibiotic MIC,S. aureus 17314,64 to 128 µg/mL
same,Antibiotic MIC,"S. aureus 17314; S. aureus 17314, +¼ MIC (1.6 μM) C12K(KNC12K)2NH2",128 µg/mL
same,Antibiotic MIC,"S. aureus 17314; S. aureus 17314, +¼ MIC (1.6 μM) C14(9-ene)KKNC12KNH2",8 µg/mL
same,Antibiotic MIC,"S. aureus 17314; S. aureus 17314, +¼ MIC (1.6 μM) C16(9-ene)KKNC12KNH2",2 µg/mL
same,Antibiotic MIC,"S. aureus 17314; S. aureus 17314, +½ MIC (3.12 μM) C12K(KNC12K)2NH2",64 µg/mL
same,Antibiotic MIC,"S. aureus 17314; S. aureus 17314, +½ MIC (3.12 μM) C12KKNC12KNH2",64 µg/mL
same,Antibiotic MIC,"S. aureus 17314; S. aureus 17314, +½ MIC (3.12 μM) C14(9-ene)KKNC12KNH2",6 µg/mL
same,Antibiotic MIC,"S. aureus 17314; S. aureus 17314, +½ MIC (3.12 μM) C16(9-ene)KKNC12KNH2",0.5 µg/mL
same,Antibiotic MIC,"S. aureus 17314; S. aureus 17314, +⅓ MIC (2.1 μM) C12K(KNC12K)2NH2",128 µg/mL
same,Antibiotic MIC,"S. aureus 17314; S. aureus 17314, +⅓ MIC (2.1 μM) C14(9-ene)KKNC12KNH2",8 µg/mL
same,Antibiotic MIC,"S. aureus 17314; S. aureus 17314, +⅓ MIC (2.1 μM) C16(9-ene)KKNC12KNH2",1 µg/mL
same,Antibiotic MIC,"S. aureus 17314; S. aureus 17314, no polymer (None), Table 9",8 µg/mL
same,Antibiotic MIC,"S. aureus 17314; S. aureus 17314, no polymer (None), Table 10",8 to 16 µg/mL
same,Antibiotic MIC,"S. aureus 17314; S. aureus 17314, no polymer (None), Table 11",128 µg/mL
same,Antibiotic MIC,"S. aureus 17314; S. aureus 17314, no polymer (None), Table 12",128 µg/mL
same,MIC,MRSA 15903; +¼ polymer MIC (1.6 μM) NC12(KNC12K)2NH2,8 µg/mL
same,MIC,MRSA 15903; +½ polymer MIC (3.1 μM) NC12(KNC12K)2NH2,1 µg/mL
same,MIC,MRSA 15903; +⅓ polymer MIC (2.1 μM) NC12(KNC12K)2NH2,2 µg/mL
same,MIC,MRSA 15903; antibiotic alone,64 µg/mL
same,"MIC, Alone",MRSA 15903; antibiotic alone (Table 22),64 µg/mL
same,"MIC, ¼ + MIC OAK",MRSA 15903; with C12K(KNC10K)3NH2 (SEQ ID NO: 10) at ¼ of its MIC,64 µg/mL
